Results taken from patent US20040209239A1, “Methods and compositions fir identifying episomal dna virus infection treatment” (priority 2001, published 2004).

Key:
[1] = system: histone H3; test: OriP-associated histone modification by ChIP assay in Akata cells; format: cell-based
Method: Akata cells were cultured without treatment, with H2O2, hydroxyurea (HU) or niacinamide as indicated above each lane. OriP-associated histone modification was measured by ChIP assay with antibodies specific for Flag, Acetylated H3, acetylated H4, or S10 phosphorylated H3.

[2] = system: TRF1; test: ChIP assay of TRF1 association with OriP in D98/HR1 cells; format: cell-based; conditions: treated D98/HR1 cells
Method: (§1) To determine if telomere associated proteins EBNA1, TRF2 and Tankyrase associate with EBV oriP episomes in naturally infected cell lines, the chromatin immunoprecipitation) (CHIP) assay was used with EBV positive RAJI Burkitt lymphoma cell lines that contain ˜5-25 copies of episomal EBV. Chromatin immunoprecipitation was performed as described in Galande, S. & Kohwi-Shigematsu, 1999 J. Biol. Chem. 274, 20521-20528.
(§2) Briefly, asynchronous RAJI cells were cross-linked with formaldehyde, sonicated to generate chromatin DNA fragments of 400 bp average size, and then immunoprecipitation with various antibodies to FLAG-M2 (Sigma), EBNA1, Tankyrase, or TRF2. DNA fragments isolated from immunoprecipitation protein-DNA complexes (three-fold dilutions for each set of antibodies) were then amplified for 24 cycles by PCR with primer pairs specific for the DS region of EBV oriP (corresponding to EBV nucleotides 8586-9206, nucleotides 1-621 SEQ ID NO: 1), or for control EBV sequences surrounding the BRLF1 promoters (nucleotides 106,094-106,420, nucleotides 1-317 SEQ ID NO: 2), over 90 kb away from oriP and unlikely to share OriP binding proteins.
(§3) EBNA1, hRap1,and TRF1 association with OriP were determined by ChIP assay in cells that were treated with hydroxyurea or niacinamide. […]

[3] = system: episomal plasmids; test: Transient replication of episomal plasmids; format: cell-based
[4] = system: OriP; test: OriP plasmid maintenance in cells; format: cell-based, Epstein-Barr virus; conditions: for OriP maintenance, dependence on nonamer binding sites: D98/HR1 cells transfected with OriP wt or OriPΔa,b,c, 3 weeks after sorting, Southern analysis of Hirt lysates; for plasmid maintenance of OriP: FIG. 4 and FIG. 5C
Text: A green fluorescent protein (GFP) reporter gene is inserted into the polylinker site of plasmid pREP10 (Invitrogen), which contains the EBV oriP and EBNA-1 under the control of its weak, naturally-occurring viral promoter. The GFP reporter gene allows for rapid flow cytometric (FACS) analysis to determine the percent of cells carrying the DNA vector. FACS is also used to cell sort, i.e., to obtain a homogeneous population of cells all expressing GFP and therefore carrying the vector.
The recombinant episomal plasmid GFP-REP10 is transfected into recipient mammalian or avian host cells and cells are sorted after 48 hours to obtain a homogeneous population (100%) expressing the GFP label. Test compounds, individually or in combination, or controls are applied to samples of the culture medium to test for the effect on GFP positive cells. Cells treated with test compounds, or with positive and/or negative controls, are assayed for the rate of loss of GFP over several days to weeks. These rates of loss are compared for each test compound with the relevant controls to determine novel test compounds that enhance or decrease episomal maintenance in the cell.
Confirmation of episomal DNA is determined at the experimental endpoint of between 3 to 5 weeks, using the HIRT extraction and Southern blotting procedure, described in e.g., Yates et al, 2000, J. Virol. 74, 4512-4522.
In one study, D98/HR1 cells were transfected with OriP wt or OriPΔa,b,c, GFP-selected by FACS, and cultured in the presence of niacinamide (PARP inhibitor), hydroxyurea (PARP stimulator), or 3-AB (PARP inhibitor). OriP maintenance was assayed 3 weeks after sorting by Southern analysis of Hirt lysates.

[5] = system: EBV genome; test: Stability of the EBV genome in cells; format: cell-based, Epstein-Barr virus; conditions: FIG. 5A and FIG. 5B
[6] = system: MCM3; test: MCM3 binding to DS in Akata cells; format: cell-based; conditions: preliminary results
Method: (§4) EBNA1 and MCM3 binding to DS were assayed in Akata cells cultured with no treatment, with hydroxyurea, or with niacinamide. […] Future quantification of these preliminary results will be necessary to determine the significance of MCM3 and other MCM complex components interaction with OriP.

[7] = system: EBNA1; test: ChIP assay of EBNA1 association with OriP in D98/HR1 cells; format: cell-based, Epstein-Barr virus; conditions: treated D98/HR1 cells
Method: as §1, §2, §3

[8] = system: hRap1; test: ChIP assay of hRap1 association with OriP in D98/HR1 cells; format: cell-based, human; conditions: treated D98/HR1 cells
[9] = system: EBNA1; test: EBNA1 binding to DS in Akata cells; format: cell-based, Epstein-Barr virus; conditions: preliminary results
Method: as §4

[10] = system: EBNA1; test: DS DNA affinity chromatography in the presence or absence of NAD; format: binding, Epstein-Barr virus; conditions: 1 mM NAD
Method: To identify cellular proteins that mediate EBNA1 functions at OriP, a stable HeLa cell derivative (SL1) was established expressing epitope tagged EBNA1 (HA-EBNA1) and episomal OriP. SL1 cells were generated by retroviral transformation of HeLa S3 cells with HA-EBNA1 lacking Gly-Ala repeats (Δ102-325). HeLa and SL1 cell nuclear extracts were prepared by the method of Dignam, J. D. et al, 1983 Nucl. Acids Res. 11, 1475-1489. Nuclear pellets were solubilized by sonication in RIPA buffer (1% Triton×100, 0.1% sodium deoxycholate, 140 mM NaCl, 50 mM Hepes (pH 7.5), 1 mM EDTA, 1 mM DTT, and protease inhibitors-1 mM PMSF, 1 mM benzamidine, 10 μg/ml aprotinin, 20 μg/ml leupeptine, 1 μg/ml pepstatin, 25 μg/ml TLCK and 50 μg/ml TPCK). Sonicated nuclear pellets were clarified by centrifugation at 39,000×g for 30 minutes. This solubilized nuclear pellets were combined with nuclear extract (1:1) made 6 mM MgCl2, and preincubated with 400 μg/ml sonicated herring sperm DNA for 30 minutes. Biotinylated PCR fragments were coupled to streptavidin conjugated magnetic bead (Dynal) and then incubated nuclear extracts for 45 minutes at 25° C. The bound material was washed 4 times in D150 buffer (20 mM HEPES, pH7.9, 20% glycerol, 0.2 mM EDTA, 150 mM KCl, 1 mM DTT, 1 mM PMSF) and then eluted with D1000 (same as above except 1000 mM KCl). […]

For OO [H2O2, hydrogen peroxide], the “OriP-associated S10 phosphorylation of histone H3” value [1] was “inhibited H3 acetylation and S10 phosphorylation”, the “OriP-associated histone H3 acetylation” value [1] was “inhibited H3 acetylation” and the “TRF1 association with OriP” value [2] was “TRF1 binding was reduced”.
With NC(=O)c1cccc(N)c1 [3-AB, 3-aminobenzamide] the “transient replication of episomal plasmids” value [3] was “weakly inhibit transient replication”, the “long term maintenance of episomal plasmids” value [4] was “stabilize long term maintenance” and the “OriP maintenance, dependence on nonamer binding sites” value [4] was “enhanced plasmid maintenance was dependent upon the nonamer binding sites in OriP”. For the same compound, the “stability of the EBV genome in cells” value [5] was “enhanced the stability of the EBV genome”.
NC(=O)c1cccnc1 [niacinamide] was tested, and the “transient replication of episomal plasmids” value [3] was “weakly inhibit transient replication”, the “MCM3 binding to DS” value [6] was “increased the MCM3 binding relative to EBNA1” and the “long term maintenance of episomal plasmids” value [4] was “stabilize long term maintenance”. For the same compound, the “OriP maintenance, dependence on nonamer binding sites” value [4] was “enhanced plasmid maintenance was dependent upon the nonamer binding sites in OriP”, the “plasmid maintenance of OriP” value [4] was “increased OriP maintenance” and the “stability of the EBV genome in cells” value [5] was “enhanced stability of the EBV genome”.
With NC(=O)NO [hydroxyurea] the “EBNA1 association with OriP” value [7] was “not EBNA1”, the “MCM3 binding to DS” value [6] was “decrease in EBNA1 and MCM3 association” and the “plasmid maintenance of OriP” value [4] was “decreased the maintenance of the OriP plasmid”. For the same compound, the “stability of the EBV genome in cells” value [5] was “decreased the stability of the EBV genome”, the “OriP-associated S10 phosphorylation of histone H3” value [1] was “inhibited S10 phosphorylation of histone H3” and the “hRap1 association with OriP” value [8] was “not EBNA1 or hRap1”. For the same compound, the “EBNA1 binding to DS” value [9] was “decrease in EBNA1 and MCM3 association” and the “TRF1 association with OriP” value [2] was “reduced TRF1 association”.
In the case of NC(=O)c1ccc[n+]([C@@H]2O[C@H](COP(=O)([O-])OP(=O)(O)OC[C@H]3O[C@@H](n4cnc5c(N)ncnc54)[C@H](O)[C@@H]3O)[C@@H](O)[C@H]2O)c1 [NAD], the “association of EBNA1 with DS” value [10] is reported as “strong inhibit the association of EBNA1”.
